One block for each compound: values may come before it. *1 amine or outer side, *2 acyl side, *3 side chain or, on linkers, in order; H or OH if unused. Where a SMILES comes first, the peptide text is derived from it. Bridges are numbered along the chain shown (N, C = ends). [ ]: non-standard residue; d: D form. The star is where a group is joined. C20 diacid = O=C(O)CCCCCCCCCCCCCCCCCCC(=O)*; γGlu = O=C(O)[C@H](CCC(=O)[*:2])N[*:1]; Hyp = O=C(O)[C@@H]1C[C@@H](O)CN1; NMeI = CC[C@H](C)[C@H](NC)C(=O)O; Sar = CNCC(=O)O
Columns and labels:
[1] = molecular target: T1, human amylin receptor 3 (hAMYR3), hCTR2 co-expressed with hRAMP3 (Homo sapiens, UniProt O60896+P30988); test: hAMYR3 cAMP assay (AlphaScreen) in COS7 cells; format: cell-based; details: cAMP induction, COS7 cells expressing hAMYR3; Table 1; read-out: hAMYR3 EC50
T1 construct: expressed in transfected cells
T1 sequence (P30988 25-474): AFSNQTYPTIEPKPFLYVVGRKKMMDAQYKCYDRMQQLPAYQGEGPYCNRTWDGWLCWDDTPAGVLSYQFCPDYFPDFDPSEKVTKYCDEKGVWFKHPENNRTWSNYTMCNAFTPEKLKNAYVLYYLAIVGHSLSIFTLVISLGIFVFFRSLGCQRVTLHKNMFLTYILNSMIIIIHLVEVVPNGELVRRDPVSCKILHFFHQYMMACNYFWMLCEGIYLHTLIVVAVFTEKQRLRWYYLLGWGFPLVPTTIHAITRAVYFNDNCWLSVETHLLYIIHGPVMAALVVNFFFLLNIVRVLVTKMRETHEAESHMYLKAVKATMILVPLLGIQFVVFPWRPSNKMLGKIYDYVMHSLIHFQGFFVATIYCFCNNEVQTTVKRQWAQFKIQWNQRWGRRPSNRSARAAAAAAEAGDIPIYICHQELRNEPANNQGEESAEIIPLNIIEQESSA
T1 sequence (O60896 24-148 partner): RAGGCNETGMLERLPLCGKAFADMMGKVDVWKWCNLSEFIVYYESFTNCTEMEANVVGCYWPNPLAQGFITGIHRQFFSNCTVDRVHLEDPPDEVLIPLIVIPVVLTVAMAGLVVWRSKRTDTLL
Source text: The cell line COS7, originating from African Green Monkey kidney fibroblast cells, was used for establishment of the stable cell lines described below. The COS7 cellular background was used due to it being RAMP naïve, and as such it provides the best available system for testing of the monomeric hCTR and different heterodimeric amylin receptor subtypes functionally generated by introduction of the individual RAMPs.
A cell line expressing the human amylin receptor 3 (hAMYR3) was generated in the COS7 cellular background as stable clones. In brief, hCTR2 (GI:4502547) and hRAMP3 (GI:118572586) were amplified by PCR using primers encoding terminal restriction sites for subcloning. The 5′-end primers additionally encoded a near Kozak consensus sequence to ensure efficient translation. The fidelity of the DNA encoding the receptor was confirmed by DNA sequencing. The PCR products encoding the receptor were subcloned into a proprietary tri-cistronic mammalian expression vector with RAMP3, hCTR2 and neomycin (G418) resistance marker. The mammalian expression vector encoding the receptor was transfected into COS7 cells by a standard liposome transfection method. 48 hours post-transfection, cells were seeded for limited dilution cloning and selected with 1 mg/ml G418 in the culture medium. After 3 weeks, surviving colonies of hAMY3R-expressing cells were picked, propagated and tested in the amylin efficacy assay as described in Example 3 below. The functional generation of the amylin receptor phenotype was verified in the efficacy assay by a left-shifted efficacy response to amylin relative to monomeric calcitonin receptor, and one hAMYR3-expressing clone was chosen for compound profiling.
In vitro activity of test peptides at the hCTR2 and hAMYR3 receptors was assessed by measuring the induction of cAMP following stimulation of the receptor using the AlphaScreen® cAMP Assay kit from Perkin-Elmer.
Briefly, COS7 cells expressing hCTR2 (see Example 2, above) were seeded at 30-40,000 cells per well in 96-well microtiter plates coated with 0.01% poly-L-lysine, and grown for 1 day in culture in 100 μl growth medium [DMEM, 10% FCS, Penicillin (100 IU/ml), Streptomycin (100 μg/ml)]. On the day of analysis, growth medium was removed and the cells were washed once with 200 μl Tyrode buffer [Tyrode's Salts (9.6 g/I), 10 mM HEPES, pH 7.4]. Cells were incubated in 100 μl Tyrode buffer containing increasing concentrations of test peptides, 100 µM IBMX and 0.1% casein for 15 min at 37° C. The reaction was stopped by carefully decanting off the compound/buffer medium and replacing it with lysis/detection buffer (80 μl 0.1% w/v BSA, 5 mM HEPES, 0.3% v/v Tween-20 in deionized water). After incubation at room temperature for 10 min., the cAMP content of the resulting cell lysate was estimated according to the AlphaScreen® cAMP Assay manufacturer's instructions. EC50 values were estimated by computer-aided curve fitting using the 4-parameter logistic (4PL) non-linear model.

[2] = Assessment of chemical stability (RP-HPLC normalized purity); format: physicochemical; details: 7 days, 40° C., Table 1
Method in brief: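 Purity after 7 days at 40° C is expressed relative to T=0 (set to 100) for each pH. Samples at 0.2 mg/ml, pH 4, 6, 7.5 or 9, analyzed by RP-HPLC with UV 220 nm on C8 (ammonium formate) or C18 (TFA) gradients.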

[3] = Assessment of physical stability (Thioflavin T fibrillation); format: physicochemical; parameters: key: FND = fibrillation not detected; FD = fibrillation detected; details: 1 mg/ml, 40° C., ThT
Method in brief: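 Fibrillation lag-time, in hours, taken where regressions of the initial stable phase and the growth phase intersect. ThT (40 μM) fluorescence monitored at 40 °C for 96 h, 10-min reads each preceded by 300 s mixing. Peptide at 1 mg/ml in 50 mM buffers: phosphate or histidine pH 7.0, acetate pH 4.0.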

[4] = molecular target: T2, human calcitonin receptor (hCTR2) (Homo sapiens, UniProt P30988); test: hCTR2 cAMP assay (AlphaScreen) in COS7 cells; format: cell-based; details: cAMP induction, COS7 cells expressing hCTR2; Table 1; read-out: hCTR2 EC50
T2 construct: expressed in transfected cells
T2 sequence (P30988 25-474): T1 sequence (P30988 25-474)
Method in brief: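 cAMP induction, read by AlphaScreen after lysis, gives EC50 values via 4PL curve fitting. Peptides were applied at rising concentrations for 15 min at 37 °C, with IBMX and 0.1% casein in HEPES-buffered Tyrode pH 7.4, to COS7 cells (no endogenous RAMPs) stably expressing human CTR2.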

EC50 [1]: 0.094 nM
Structure (SMILES): CC[C@H](C)[C@@H](C(=O)N[C@@H](CC(C)C)C(=O)N[C@@H](CO)C(=O)N[C@@H](CO)C(=O)N[C@H](C(=O)N[C@@H](CC(=O)O)C(=O)N[C@H](C(=O)NCC(=O)N[C@@H](CO)C(=O)N[C@@H](CC(N)=O)C(=O)N[C@H](C(=O)N1CCC[C@H]1C(N)=O)[C@@H](C)O)C(C)C)[C@@H](C)O)N(C)C(=O)[C@H](C)NC(=O)CN(C)C(=O)[C@H](Cc1ccccc1)NC(=O)[C@H](CO)NC(=O)[C@H](CO)NC(=O)[C@H](CCCNC(=N)N)NC(=O)[C@H](Cc1c[nH]cn1)NC(=O)[C@H](CC(C)C)NC(=O)[C@H](Cc1ccccc1)NC(=O)[C@H](Cc1c[nH]cn1)NC(=O)[C@H](C)NC(=O)[C@H](CC(C)C)NC(=O)[C@H](CCCNC(=N)N)NC(=O)[C@H](CC(=O)O)NC(=O)[C@@H](NC(=O)[C@H](C)NC(=O)[C@@H]1CSSC[C@H](NC(=O)[C@H](CCCNC(=N)N)NC(=O)CC[C@H](NC(=O)CCCCCCCCCCCCCCCCCCC(=O)O)C(=O)O)C(=O)N2CCC[C@H]2C(=O)N[C@@H]([C@@H](C)O)C(=O)N[C@@H](C)C(=O)N[C@@H]([C@@H](C)O)C(=O)N1)[C@@H](C)O [Compound 25, [19CD]-isoGlu-R-C( )-PTAT-C( )-ATDRLAHFLHRSSF-Gly(Me)-A-Ile(Me)-LSSTDVGSNTP-NH2] ({C20 diacid-γGlu}-RCPTATCATDRLAHFLHRSSF[Sar]A[NMeI]LSSTDVGSNTP-NH2; disulfide 2-7)

EC50 [1]: 0.34 nM
Structure (SMILES): CC[C@H](C)[C@@H](C(=O)N[C@@H](CC(C)C)C(=O)N[C@@H](CO)C(=O)N[C@@H](CO)C(=O)N[C@H](C(=O)N[C@@H](CCC(=O)O)C(=O)N[C@H](C(=O)NCC(=O)N[C@@H](CO)C(=O)N[C@@H](Cc1ccccc1)C(=O)N[C@H](C(=O)N1C[C@H](O)C[C@H]1C(N)=O)[C@@H](C)O)C(C)C)[C@@H](C)O)N(C)C(=O)[C@H](C)NC(=O)CN(C)C(=O)[C@H](Cc1ccccc1)NC(=O)[C@H](CO)NC(=O)[C@H](CO)NC(=O)[C@H](CCCNC(=N)N)NC(=O)[C@@H](NC(=O)[C@H](CC(C)C)NC(=O)[C@H](Cc1ccccc1)NC(=O)[C@H](CC(=O)O)NC(=O)[C@H](C)NC(=O)[C@H](CC(C)C)NC(=O)[C@H](CCCNC(=N)N)NC(=O)[C@H](CCC(=O)O)NC(=O)[C@@H](NC(=O)[C@H](C)NC(=O)[C@@H]1CSSC[C@H](NC(=O)[C@H](CCCNC(=N)N)NC(=O)CC[C@H](NC(=O)CCCCCCCCCCCCCCCCCCC(=O)O)C(=O)O)C(=O)NCC(=O)N[C@@H]([C@@H](C)O)C(=O)N[C@@H](C)C(=O)N[C@@H]([C@@H](C)O)C(=O)N1)[C@@H](C)O)[C@@H](C)O [Compound 42, [19CD]-isoGlu-R-C( )-GTAT-C( )-ATERLADFLTRSSF-Gly(Me)-A-Ile(Me)-LSSTEVGSFT-Hyp-NH2] ({C20 diacid-γGlu}-RCGTATCATERLADFLTRSSF[Sar]A[NMeI]LSSTEVGSFT[Hyp]-NH2; disulfide 2-7)

EC50 [1]: 0.12 nM
Structure (SMILES): CC[C@H](C)[C@@H](C(=O)N[C@@H](CC(C)C)C(=O)N[C@@H](CO)C(=O)N[C@@H](CO)C(=O)N[C@H](C(=O)N[C@@H](CCC(=O)O)C(=O)N[C@H](C(=O)NCC(=O)N[C@@H](CO)C(=O)N[C@@H](CCC(=O)O)C(=O)N[C@H](C(=O)N1CCC[C@H]1C(N)=O)[C@@H](C)O)C(C)C)[C@@H](C)O)N(C)C(=O)[C@H](C)NC(=O)CN(C)C(=O)[C@H](Cc1ccccc1)NC(=O)[C@H](CO)NC(=O)[C@H](CO)NC(=O)[C@H](CCCNC(=N)N)NC(=O)[C@H](Cc1c[nH]cn1)NC(=O)[C@H](CC(C)C)NC(=O)[C@H](Cc1ccccc1)NC(=O)[C@H](Cc1c[nH]cn1)NC(=O)[C@H](C)NC(=O)[C@H](CC(C)C)NC(=O)[C@H](CCCNC(=N)N)NC(=O)[C@H](CCC(=O)O)NC(=O)[C@@H](NC(=O)[C@H](C)NC(=O)[C@@H]1CSSC[C@H](NC(=O)[C@H](CCCNC(=N)N)NC(=O)CC[C@H](NC(=O)CCCCCCCCCCCCCCCCCCC(=O)O)C(=O)O)C(=O)NCC(=O)N[C@@H]([C@@H](C)O)C(=O)N[C@@H](C)C(=O)N[C@@H]([C@@H](C)O)C(=O)N1)[C@@H](C)O [Compound 26, [19CD]-isoGlu-R-C( )-GTAT-C( )-ATERLAHFLHRSSF-Gly(Me)-A-Ile(Me)-LSSTEVGSETP-NH2] ({C20 diacid-γGlu}-RCGTATCATERLAHFLHRSSF[Sar]A[NMeI]LSSTEVGSETP-NH2; disulfide 2-7)

Normalized purity after 7 days, 40° C., pH 4 ([2]; pH 4, 0.2 mg/ml): A (A = >90%)
Normalized purity after 7 days, 40° C., pH 6 ([2]; pH 6, 0.2 mg/ml): A (A = >90%)
Normalized purity after 7 days, 40° C., pH 7.5 ([2]; pH 7.5, 0.2 mg/ml): A (A = >90%)
Normalized purity after 7 days, 40° C., pH 9 ([2]; pH 9, 0.2 mg/ml): A (A = >90%)
Fibrillation pH 4.0 (Ac) ([3]; 50 mM acetate buffer pH 4.0, 96 hours): FND
Fibrillation pH 7.0 (His) ([3]; 50 mM histidine buffer pH 7.0, 96 hours): FND
Fibrillation pH 7.0 (Phos.) ([3]; 50 mM phosphate buffer pH 7.0, 96 hours): FND
EC50 [4]: 0.06 nM
Structure (SMILES): CC[C@H](C)[C@@H](C(=O)N[C@@H](CC(C)C)C(=O)N[C@@H](CO)C(=O)N[C@@H](CO)C(=O)N[C@H](C(=O)N[C@@H](CCC(=O)O)C(=O)N[C@H](C(=O)NCC(=O)N[C@@H](CO)C(=O)N[C@@H](CC(N)=O)C(=O)N[C@H](C(=O)N1C[C@H](O)C[C@H]1C(N)=O)[C@@H](C)O)C(C)C)[C@@H](C)O)N(C)C(=O)[C@H](C)NC(=O)CN(C)C(=O)[C@H](Cc1ccccc1)NC(=O)[C@H](CO)NC(=O)[C@H](CO)NC(=O)[C@H](CCCNC(=N)N)NC(=O)[C@H](CCC(N)=O)NC(=O)[C@H](CC(C)C)NC(=O)[C@H](Cc1ccccc1)NC(=O)[C@H](Cc1c[nH]cn1)NC(=O)[C@H](C)NC(=O)[C@H](CC(C)C)NC(=O)[C@H](CCCNC(=N)N)NC(=O)[C@H](CC(=O)O)NC(=O)[C@@H](NC(=O)[C@H](C)NC(=O)[C@@H]1CSSC[C@H](NC(=O)[C@H](CCCNC(=N)N)NC(=O)CC[C@H](NC(=O)CCCCCCCCCCCCCCCCCCC(=O)O)C(=O)O)C(=O)N[C@@H](CCC(N)=O)C(=O)N[C@@H]([C@@H](C)O)C(=O)N[C@@H](C)C(=O)N[C@@H]([C@@H](C)O)C(=O)N1)[C@@H](C)O [Compound 88, [19CD]-isoGlu-R-C( )-QTAT-C( )-ATDRLAHFLQRSSF-Gly(Me)-A-Ile(Me)-LSSTEVGSNT-Hyp-NH2] ({C20 diacid-γGlu}-RCQTATCATDRLAHFLQRSSF[Sar]A[NMeI]LSSTEVGSNT[Hyp]-NH2; disulfide 2-7)

Source: US20210115104A1, “AMYLIN ANALOGUES” (Zealand Pharma A/S, priority 2015, published 2021)
